What was measured:
[1] = tested on: G-CSF-mobilised CD34+ peripheral blood stem cells; assay: Lentiviral vector transduction of G-CSF-mobilised CD34+ peripheral blood stem cells with or without dmPGE2 (in vitro); type: cell-based, human; conditions: pre-stimulated with dmPGE2, 18 h
Method: N=6 transductions of 3 mobilised peripheral blood donors. Cells were thawed, resuspended in serum-free, commercial culture medium (e.g. CellGro) at a density of 10^6 cells/mL in the presence of the following cytokines: 300 ng/mL SCF, 300 ng/mL FLT3L, 100 ng/mL TPO, 60 ng/mL IL-3, and prestimulated for 18 h, in the absence (control, Ctrl) or presence of dmPGE2. Transduction was performed with lentiviral vectors (3 different batches) at 10^8 TU/mL for 12-24 h. Vector copy number was assessed by qPCR after 14 days of in vitro culture in IMDM and 10% FCS. Relative VCN (normalised to the Control group) is shown.

[2] = tested on: CD34^+ cells from adult bone marrow; assay: Lentiviral vector transduction of adult bone marrow CD34+, CD34+CD38- and CD34+CD38+ cells with or without dmPGE2; type: cell-based, human; conditions: CD34^+ or CD34^+CD38^− HSPC from adult bone marrow after dmPGE2 treatment (10 μM)
Method: The experiments were carried out as follows: CD34^+ cells from N=3 bone marrow donors (Lonza) were thawed and put into culture in Stem span serum free expansion medium (SFEM) under the following conditions: pre-stimulation in 300 ng/mL SCF, 300 ng/mL FLT3L, 100 ng/mL TPO, 60 ng/mL IL3 for 18 h. Cells were then divided into 3 groups: bulk CD34^+, CD34^+CD38^−, CD34^+CD38^+ (FACS-sorted on a MoFlow cytometer after marking with CD38-APC antibody from BD Bioscience). We then added dmPGE2 (10 μM) or DMSO to the cultures, and pre-stimulated the cells for another 16 h before they were transduced with a GFP-expressing lentiviral vector (LV.PGK.GFP) at 10^8 TU/mL. In vitro culture assays were performed, either as liquid culture for 14 days in IMDM+10% FCS (left) or colony forming cell (CFC) assay (right; plated 800 cells/mL methocult, analysed colony outgrowth after 14 d). Vector copy number was assessed by qPCR as described in Gentner B et al. Nat. Methods 2009; 6:63-66.

cord blood CD34^+ cells [3] = assay: VCN and engraftment after xenotransplantation of dmPGE2-stimulated, LV-transduced cord blood CD34+ cells into NSG mice; type: in vivo
Method: Cord blood CD34^+ cells were thawed and placed in culture (10^6 cells/mL) in Stem span serum free medium (SFEM) supplemented with 100 ng/mL SCF, 100 ng/mL FLT3L, 50 ng/mL TPO, 50 ng/mL IL-6 for 18 h (pre-stimulation) and subsequently transduced with a lentiviral vector at 10^8 TU/mL for 24 h. Cells were injected into sublethally irradiated, 8 week old NSG mice (1.5-3×10^5 cells per mouse), and vector copy number (VCN) was analysed in the pooled blood or bone marrow of each group of mice at the indicated time-points using primers specific for human cells. 3 replicate experiments are shown. Left graph: Cells were transduced with a PGK.TRAIL LV, and 10 μM dmPGE2 (dmPGE2 group, n=5 mice) or DMSO (Ctrl group, n=5 mice) was added directly after thawing (t=−16 h with respect to vector addition). Middle graph: Cells were transduced with a PGK.TRAIL LV, and 10 μM dmPGE2 (dmPGE2 group n=5) or DMSO (Ctrl group; n=8) was added 120 min before vector addition (t=−2 h). […], and 10 μM dmPGE2 (dmPGE2 group n=5) or DMSO (Ctrl group; n=5) was added 120 min before vector addition (t=−2 h). In all three experiments, the benefit in transduction observed in vitro was stably maintained long-term, up to 18 weeks after xenotransplantation.

[4] = tested on: CD34^+ cells from G-CSF mobilised peripheral blood (mPB); assay: VCN in long-term repopulating cells after xenotransplantation of mPB CD34+ cells transduced by protocols P0-P4; type: in vivo, NSG mice
Method: CD34^+ cells from G-CSF mobilised peripheral blood (mPB) were thawed and placed in culture (10^6 cells/mL) in CellGro medium supplemented with SCF (300 ng/mL), FLT3L (300 ng/mL), TPO (100 ng/mL) and IL-3 (60 ng/mL). Cells were transduced with third generation lentiviral vectors coding for gp91^phox (vectors suitable for the gene therapy of chronic granulomatous disease) at a dose of 10^8 TU/mL. The different protocols used for ex vivo transduction of mPB CD34+ cells are illustrated in (E) and differ in terms of the presence (P1, P2, P3) or absence (P0, P4) of dmPGE2, the timing of dmPGE2 addition (after thawing: P1, P2; 120 min before transduction: P3) and the duration of culture (24 h: P2, P4 versus 44 h: P0, P1, P3).
(F) 10×10^6 CD34^+ mPB cells from donor 1 were thawed, divided into 4 equal parts and transduced with the SP146/gp91.cogp91^phox. 126T LV from an industry-grade production (Molmed Spa) according to P0, P1, P2 or P3. The outgrowth of 5×10^5 cells put into culture at time zero was injected per mouse (actual numbers: P0 3.66×10^5 per mouse; P1: 4.66×10^5 per mouse; P2: 3.0×10^5 per mouse; P3: 4.86×10^5 per mouse). Mice were euthanised at 20 weeks post transplantation. BM was flushed and pooled from the mice belonging to the same group (P0, P1, P2: n=5 per group; P3: n=3 per group) and depleted for mouse cells. Enriched human cells were then subjected to vector copy number (VCN) analysis using primers specific for human cells (5 technical replicates).
A replicate experiment was performed using mPB CD34^+ cells from a second donor (G). 15×10^6 CD34^+ mPB cells were thawed, divided into 4 equal parts and transduced with the SP146/gp91.gp91^phoxTGT.126T LV (a vector suitable for CGD gene therapy) coming from a lab-grade production according to protocols P0, P1 (44 h−/+dmPGE2) or P4, P2 (24 h−/+dmPGE2). The outgrowth of 9×10^5 cells put into culture at time zero was injected per mouse (actual numbers: P0 10×10^5 per mouse; P1: 8.2×10^5 per mouse; P4: 4.5×10^5 per mouse; P2: 5.3×10^5 per mouse). VCN was analysed on BM cells from each single mouse 13 weeks after transplantation using a qPCR assay specific for human cells.

cord blood CD34^+ cells [5] = assay: Lentiviral vector transduction of cord blood CD34+ cells with or without dmPGE2, VCN by qPCR (in vitro); type: cell-based, human
Method: CD34^+ cells from n=4 cord blood donors (Lonza) were thawed and put into culture in Stem span serum free expansion medium (SFEM) supplemented with 100 ng/mL SCF, 100 ng/mL FLT3L, 50 ng/mL TPO, 50 ng/mL IL6 for 18 h (pre-stimulation), in the presence or absence of 10 μM dmPGE2. After pre-stimulation, cells were incubated with 10^8 TU/mL of a lentiviral vector for 24 h. Cells were then cultured in vitro (n=5 replicates) for 14 days in IMDM+10% FCS before vector copy number (VCN) was measured by qPCR as described in Gentner, B. et al. (2009) Nat.

human HSPCs = assay: Timing of dmPGE2 stimulation and transducability of human HSPCs by lentiviral vectors; type: cell-based
Method: This experiment was carried out on 1 cord blood and 1 mobilised peripheral blood donor, the relative VCN is shown (normalised to its respective control).

CCCCC(C)(C)[C@H](O)/C=C/[C@H]1[C@H](O)CC(=O)[C@@H]1C/C=C\CCCC(=O)O [dmPGE2, 16,16-dimethyl prostaglandin E2]
transduction by lentiviral vectors [1]: more efficient transduction
increased gene transfer efficiency [2]: 1.5 fold
time over which benefit in transduction was stably maintained after xenotransplantation (cord blood CD34^+ cells [3]; 10 μM dmPGE2 at t=−16 h or t=−2 h, three experiments): up to 18 weeks
engraftment levels (cord blood CD34^+ cells [3]; NSG mice, dmPGE2-treated cells): not negatively affected
time over which difference in VCN was maintained after transplantation into NSG mice (cord blood CD34^+ cells [3]; after transplantation of dmPGE2-treated cells): more than 4 months
sustained gain in transduction efficiency in long-term repopulating cells ([4]; P1 condition (dmPGE2 after thawing, 44 h culture), donor 2, BM 13 weeks after transplantation): did not result in a sustained gain in transduction efficiency
transduction-promoting effect in long-term repopulating cells ([4]; P2 (24 h culture with dmPGE2), donor 2, BM 13 weeks after transplantation): increased transduction well above levels achieved by a 44 h standard protocol
increase in VCN into long-term repopulating cells ([4]; P2 condition (dmPGE2 after thawing, 24 h culture), donor 1, BM 20 weeks post transplantation): ~50%
increase in VCN, P3 protocol ([4]; P3 (dmPGE2 120 min before transduction, 44 h culture), donor 1, BM 20 weeks): not statistically significant
increase in gene transfer (VCN) (cord blood CD34^+ cells [5]; 10 μM dmPGE2 during 18 h pre-stimulation, LV 10^8 TU/mL 24 h, VCN after 14 days culture): 50%
increased gene transfer efficiency (cord blood CD34^+ cells [5]; CD34^+ or CD34^+CD38^− HSPC from cord blood after dmPGE2 treatment): 1.5 fold
increase in VCN (human HSPCs; dmPGE2 added 2 h before LV exposure (t=−2 h), 1 cord blood and 1 mobilised peripheral blood donor): 100%
VCN increase (human HSPCs; dmPGE2 added at the time of thawing (t=−16 h)): ~50%

— patent US10617721B2, “Methods for genetic modification of stem cells” (Ospedale San Raffaele S.R.L., priority 2013, dated 2020)
